Laboratory results as given in US20140357633A1, “COMPOUNDS FOR INHIBITING THE INTERACTION OF BCL2 WITH BINDING PARTNERS” (NOVARTIS AG, priority 2011, published 2014).
“And” between values parts separate entries of the source, which are not always exact repeats. Equal values may be shown once.

Experiments:
[1] = biological target: BCL-2 (binding to BAD peptide) (Homo sapiens, UniProt P10415); assay: SPR (Biacore) solution inhibition assay, BCL-2 binding to immobilized BAD peptide; conditions: biotinylated BAD peptide surface, 56 nM BCL-2, 25° C.; range = high and low IC50 values from multiple experiments; read-out: BCL2_SPR IC50 BAD
From the text: (§1) The present method includes utility of a Surface plasmon resonance (SPR)-based biosensor (Biacore™′ GE Healthcare, Uppsala, Sweden) to characterize BCL-2 inhibitors.
(§2) Biacore™ utilizes the phenomenon of surface plasmon resonance (SPR) to detect and measure binding interactions. In a typical Biacore experiment, one of the interacting molecules (ligand) is immobilized on a flexible dextran matrix while the interacting partner (analyte) is allowed to flow across that surface. A binding interaction results in an increase in mass on the sensor surface and a corresponding direct change in the refractive index of the medium in the vicinity of the sensor surface. Changes in refractive index or signal are recorded in resonance units (R.U.) Signal changes due to association and dissociation of complexes are monitored in a non-invasive manner, continuously and in real-time, the results of which are reported in the form of a sensorgram.
(§3) The SPR assay is configured to examine solution inhibition of BCL-2 binding to peptide derivatized sensor surfaces to generate IC50 values as a measure of inhibitor potency.
(§4) Biacore™ A100 (GE Healthcare, Uppsala, Sweden) was used to conduct all experiments reported herein. Sensor surface preparation and all interaction analyses experiments were performed at 25° C. Reagents were purchased from GE Healthcare. Running buffer containing 10 mM Hepes, pH7.4, 150 mM sodium chloride, 1.25 mM Dithiothreitol, 3% Dimethyl sulfoxide and 0.05% polysorbate 20 were utilized throughout all analyses.
(§5) Biotinylated BAK, BAD and NOXA peptides were diluted to 10 nM in running buffer and captured onto a sensor surface pre-derivatized with streptavidin (sensor chip SA) to peptide surface densities in the range 50-100 R.U. Peptide captured surfaces were blocked with 500 μM PEO2-Biotin.
(§6) Interaction analyses were performed by first equilibrating each sample within a 6 point three fold compound dilution series in the range 16 μM to […] with 56 nM BCL-2 for one hour during instrument start-up procedures. Protein compound mixtures were then injected over each peptide surface in parallel for 60 seconds at a flow-rate of 30 μL/min. 56 nM BCL-2 control samples were also prepared and run at regular intervals during the assay. Surface regeneration was performed at the end of each analysis cycle by two 30 second injections of 10 mM Glycine, pH 2.5, 1M Sodium Chloride, 0.05% polysorbate 20. Samples and control compound samples were run in duplicate and controls are also run at regular intervals during the assay to monitor surface and assay performance.
(§7) Data analyses are carried out using Biacore™ A100 evaluation software v1.1 to validate assay quality. Binding level report points were used relative to BCL-2 control samples to calculate % inhibition values for each compound protein mixture. […] The range of data shown in table 1 represents the high and low IC50 values obtained from multiple experiments.

[2] = biological target: BCL-2 (binding to BAK peptide) (Homo sapiens, UniProt P10415); assay: SPR (Biacore) solution inhibition assay, BCL-2 binding to immobilized BAK peptide; conditions: biotinylated BAK peptide surface, 56 nM BCL-2, 25° C.; range = high and low IC50 values from multiple experiments; read-out: BCL2_SPR IC50 BAK
From the text: as §1, §2, §3, §4, §5, §6, §7

Chain of BCL-2 (binding to BAD peptide) (P10415 whole entry): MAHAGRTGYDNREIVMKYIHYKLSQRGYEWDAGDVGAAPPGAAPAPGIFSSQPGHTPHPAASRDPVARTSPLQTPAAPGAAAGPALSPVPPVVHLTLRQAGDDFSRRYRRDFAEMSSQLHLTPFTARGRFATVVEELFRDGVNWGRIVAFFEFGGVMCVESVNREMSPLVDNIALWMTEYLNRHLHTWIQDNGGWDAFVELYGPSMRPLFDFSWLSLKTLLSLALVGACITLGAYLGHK
Chain of BCL-2 (binding to BAK peptide) (P10415 whole entry): as above

IC50 [1] | IC50 [2] | SMILES
574 to 596 nM | 409 to 430 nM | CCCCN(CCCC)C(=O)c1cc(C)n(-c2ccc(NC(=O)Cc3c(F)cccc3Cl)cc2C(=O)N2Cc3ccccc3C[C@H]2CO)n1 [Example 159]
143 to 158 nM | 133 to 134 nM | CCCCN(CCCC)C(=O)c1cc(C)n(-c2ccc(NC(=O)Cc3cc(F)ccc3OC)cc2C(=O)N2Cc3ccccc3C[C@H]2CO)n1 [Example 70]
763 to 799 nM | 553 to 566 nM | CCCCN(CCCC)C(=O)c1cc(C)n(-c2ccc(NC(=O)CC3NC(=O)NC3=O)cc2C(=O)N2Cc3ccccc3C[C@H]2CO)n1 (some centres unmarked) [Example 111]
918 to 958 nM | 739 to 881 nM | CCCCN(CCCC)C(=O)c1cc(C)n(-c2ccc(NC(=O)c3cc(-c4cccc(O)c4)[nH]n3)cc2C(=O)N2Cc3ccccc3C[C@H]2CO)n1 [Example 134]
43.5 to 44.3 nM | 36.1 to 36.8 nM | CCCCN(CCCC)C(=O)c1cc(C)n(-c2ccc(NC(=O)[C@H](OC)c3ccc4ccccc4c3)cc2C(=O)N2Cc3ccccc3C[C@H]2CO)n1 [Example 162]
317 to 325 nM | 237 to 257 nM | CCCCN(CCCC)C(=O)c1cc(C)n(-c2ccc(NC(=O)c3csc(N4CCOCC4)n3)cc2C(=O)N2Cc3ccccc3C[C@H]2CO)n1 [Example 122]
131 to 140 nM | 106 to 110 nM | CCCCN(CCCC)C(=O)c1cc(C)n(-c2ccc(NC(=O)Cc3nc(-c4ccccc4)oc3C)cc2C(=O)N2Cc3ccccc3C[C@H]2CO)n1 [Example 106]
78.7 to 97.4 nM | 83.8 to 109 nM | CCCCN(CCCC)C(=O)c1cc(C)n(-c2ccc(NC(=O)COc3ccccc3)cc2C(=O)N2Cc3ccccc3C[C@H]2CO)n1 [Example 4]
130 to 167 nM | 114 to 150 nM | CCCCN(CCCC)C(=O)c1cc(C)n(-c2ccc(NC(=O)C3CC(=O)N(Cc4ccccc4)C3)cc2C(=O)N2Cc3ccccc3C[C@H]2CO)n1 (some centres unmarked) [Example 101]
252 to 267 nM | 204 to 240 nM | CCCCN(CCCC)C(=O)c1cc(C)n(-c2ccc(NC(=O)C3(c4ccccc4)CC3)cc2C(=O)N2Cc3ccccc3C[C@H]2CO)n1 [Example 30]
254 to 260 nM | 215 to 235 nM | CCCCN(CCCC)C(=O)c1cc(C)n(-c2ccc(NC(=O)CCc3c[nH]c4c(Cl)cccc34)cc2C(=O)N2Cc3ccccc3C[C@H]2CO)n1 [Example 124]
1850 to 1900 nM | 1770 to 1830 nM | CCCCN(CCCC)C(=O)c1cc(C)n(-c2ccc(NC(=O)c3ccc(OC(F)(F)F)cc3)cc2C(=O)N2Cc3ccccc3C[C@H]2CO)n1 [Example 93]
120 to 121 nM | 105 to 107 nM | CCCCN(CCCC)C(=O)c1cc(C)n(-c2ccc(NC(=O)C(CC(=O)OC)c3ccccc3)cc2C(=O)N2Cc3ccccc3C[C@H]2CO)n1 (some centres unmarked) [Example 6]
111 to 112 nM | 94 to 98.2 nM | CCCCN(CCCC)C(=O)c1cc(C)n(-c2ccc(NC(=O)CN3CC(c4ccccc4)CC3=O)cc2C(=O)N2Cc3ccccc3C[C@H]2CO)n1 (some centres unmarked) [Example 119]
84.2 to 88.5 nM | 75.5 to 79.1 nM | CCCCN(CCCC)C(=O)c1cc(C)n(-c2ccc(NC(=O)[C@@H](C)c3ccccc3)cc2C(=O)N2Cc3ccccc3C[C@H]2CO)n1 [Example 52]
619 to 638 nM | 595 to 598 nM | CCCCN(CCCC)C(=O)c1cc(C)n(-c2ccc(NC(=O)c3[nH]c4ccccc4c3-c3ccccc3)cc2C(=O)N2Cc3ccccc3C[C@H]2CO)n1 [Example 148]
155 to 158 nM | 122 to 126 nM | CCCCN(CCCC)C(=O)c1cc(C)n(-c2ccc(NC(=O)C3=CC(c4ccccc4)NC(=O)N3)cc2C(=O)N2Cc3ccccc3C[C@H]2CO)n1 (some centres unmarked) [Example 51]
522 to 594 nM | 586 to 600 nM | CCCCN(CCCC)C(=O)c1cc(C)n(-c2ccc(NC(=O)c3cc(C(C)C)nn3C)cc2C(=O)N2Cc3ccccc3C[C@H]2CO)n1 [Example 47]
908 to 1110 nM | 1030 to 1070 nM | CCCCN(CCCC)C(=O)c1cc(C)n(-c2ccc(NC(=O)c3oc4ccccc4c3C)cc2C(=O)N2Cc3ccccc3C[C@H]2CO)n1 [Example 80]
264 to 296 nM | 291 to 325 nM | CCCCN(CCCC)C(=O)c1cc(C)n(-c2ccc(NC(=O)CC3CCCCC3)cc2C(=O)N2Cc3ccccc3C[C@H]2CO)n1 [Example 28]

IC50 [1] | IC50 [2] | SMILES
839 to 856 nM | 731 to 786 nM | CCCCN(CCCC)C(=O)c1cc(C)n(-c2ccc(NC(=O)c3cccn(Cc4ccccc4)c3=O)cc2C(=O)N2Cc3ccccc3C[C@H]2CO)n1 [Example 116]
61.9 to 73.1 nM and 64.1 to 72.9 nM and 51 to 54.5 nM | 57.2 to 59.9 nM and 58.3 to 62 nM and 52.4 to 53.4 nM | CCCCN(CCCC)C(=O)c1cc(C)n(-c2ccc(NC(=O)C(C)c3ccc4ccccc4c3)cc2C(=O)N2Cc3ccccc3C[C@H]2CO)n1 (some centres unmarked) [Example 114]
61.2 to 66.9 nM | 54.4 to 58.5 nM | CCCCN(CCCC)C(=O)c1cc(C)n(-c2ccc(NC(=O)Cc3noc4ccccc34)cc2C(=O)N2Cc3ccccc3C[C@H]2CO)n1 [Example 121]
964 to 1030 nM | 696 to 875 nM | CCCCN(CCCC)C(=O)c1cc(C)n(-c2ccc(NC(=O)c3n[nH]c4c3CCC4)cc2C(=O)N2Cc3ccccc3C[C@H]2CO)n1 [Example 112]
131 to 138 nM | 106 to 108 nM | CCCCN(CCCC)C(=O)c1cc(C)n(-c2ccc(NC(=O)COc3cc(Cl)c(Cl)cc3Cl)cc2C(=O)N2Cc3ccccc3C[C@H]2CO)n1 [Example 127]
81.6 to 89.1 nM | 65.3 to 69.7 nM | CCCCN(CCCC)C(=O)c1cc(C)n(-c2ccc(NC(=O)c3cccc(Cl)c3O)cc2C(=O)N2Cc3ccccc3C[C@H]2CO)n1 [Example 83]
138 to 149 nM | 112 to 133 nM | CCCCN(CCCC)C(=O)c1cc(C)n(-c2ccc(NC(=O)CCSc3ccc4ccccc4c3)cc2C(=O)N2Cc3ccccc3C[C@H]2CO)n1 [Example 64]
369 to 398 nM | 299 to 351 nM | CCCCN(CCCC)C(=O)c1cc(C)n(-c2ccc(NC(=O)CCc3cn4cccnc4n3)cc2C(=O)N2Cc3ccccc3C[C@H]2CO)n1 [Example 79]
1220 to 1810 nM | 1220 to 2070 nM | CCCCN(CCCC)C(=O)c1cc(C)n(-c2ccc(NC(=O)COc3ccc(OCc4ccccc4)cc3)cc2C(=O)N2Cc3ccccc3C[C@H]2CO)n1 [Example 20]
88.7 to 103 nM | 63.5 to 77.5 nM | CCCCN(CCCC)C(=O)c1cc(C)n(-c2ccc(NC(=O)CNC(=O)c3cccnc3)cc2C(=O)N2Cc3ccccc3C[C@H]2CO)n1 [Example 125]
351 to 376 nM | 252 to 256 nM | CCCCN(CCCC)C(=O)c1cc(C)n(-c2ccc(NC(=O)C3CC(=O)N(CCc4ccc(OC)c(OC)c4)C3)cc2C(=O)N2Cc3ccccc3C[C@H]2CO)n1 (some centres unmarked) [Example 104]
66.9 to 67.7 nM and 69.8 to 79.8 nM | 58.1 to 59.3 nM and 58.9 to 68.8 nM | CCCCN(CCCC)C(=O)c1cc(C)n(-c2ccc(NC(=O)Cc3ccc4ccccc4c3)cc2C(=O)N2Cc3ccccc3C[C@H]2CN)n1 [Example 54]
776 to 791 nM | 462 to 478 nM | CCCCN(CCCC)C(=O)c1cc(C)n(-c2ccc(NC(C)=O)cc2C(=O)N2Cc3ccccc3C[C@H]2CO)n1 [Example 13]
25.7 to 31.7 nM | 30.7 to 31.1 nM | CCCCN(CCCC)C(=O)c1cc(C)n(-c2ccc(NC(=O)c3nn(-c4ccccc4)c(=O)cc3O)cc2C(=O)N2Cc3ccccc3C[C@H]2CO)n1 [Example 94]
611 to 628 nM | 432 to 440 nM | CCCCN(CCCC)C(=O)c1cc(C)n(-c2ccc(NC(=O)c3ccc4c(C)c(C)[nH]c4c3)cc2C(=O)N2Cc3ccccc3C[C@H]2CO)n1 [Example 86]
74.1 to 100 nM | 58.7 to 82.9 nM | CCCCN(CCCC)C(=O)c1cc(C)n(-c2ccc(NC(=O)c3c(C)n(C)n(-c4ccccc4)c3=O)cc2C(=O)N2Cc3ccccc3C[C@H]2CO)n1 [Example 73]
293 to 339 nM | 249 to 279 nM | CCCCN(CCCC)C(=O)c1cc(C)n(-c2ccc(NC(=O)c3cc4ccccc4cn3)cc2C(=O)N2Cc3ccccc3C[C@H]2CO)n1 [Example 123]
282 to 288 nM | 222 to 231 nM | CCCCN(CCCC)C(=O)c1cc(C)n(-c2ccc(NC(=O)c3cc(SC)ccc3Cl)cc2C(=O)N2Cc3ccccc3C[C@H]2CO)n1 [Example 89]
111 to 120 nM | 95.2 to 96.7 nM | CCCCN(CCCC)C(=O)c1cc(C)n(-c2ccc(NC(=O)CCc3nc(-c4ccccc4)no3)cc2C(=O)N2Cc3ccccc3C[C@H]2CO)n1 [Example 60]
27.8 to 36.6 nM | 23.3 to 30.8 nM | CCCCN(CCCC)C(=O)c1cc(C)n(-c2ccc(NC(=O)Cc3ccc(OC)c(Br)c3)cc2C(=O)N2Cc3ccccc3C[C@H]2CO)n1 [Example 131]
